From US20230255953A1, “USE OF ROLUPERIDONE IN PREVENTING RELAPSE IN SCHIZOPHRENIA PATIENTS” (Minerva Neurosciences, Inc., priority 2022, published 2023)

Assays:
[1] = tested on: patients with negative symptoms of schizophrenia; experiment: Integrated analysis (pooled ITT): PSP Total score; format: in vivo, human; design: key to PSP Total score, LS mean change from Baseline compared with placebo / PSP Total Score change from Baseline, Median: change in PSP Total score (scale 1-100, higher = better functioning); settings: for PSP Total Score change from Baseline, LS mean (SE) / PSP Total Score change from Baseline, Mean (SD) / PSP Total Score change from Baseline, Median / PSP Total Score, Difference (95% CI) in LS mean (vs placebo): DB; for PSP Total Score change from Baseline, LS mean (SE) / PSP Total Score change from Baseline, Mean (SD) / PSP Total Score change from Baseline, Median / PSP Total Score, Difference (95% CI) in LS mean (vs placebo) / PSP Total score, LS mean change from Baseline compared with placebo: pooled ITT; for PSP Domain Disturbing and Aggressive Behavior, Change from Baseline (LS Means [SEM]) / PSP Domain Personal and Social Relationships, Change from Baseline (LS Means [SEM]) / PSP Domain Self-Care, Change from Baseline (LS Means [SEM]) / PSP Domain Socially Useful Activities, Change from Baseline (LS Means [SEM]) / PSP Total Score, Change from Baseline (LS Means [SEM]): ITT; for Patients with high improvement in PSP Total score (magnitude of change ≥10) / Patients with moderate improvement in PSP Total score (magnitude of change 7-9) / Patients with moderate or high improvement in PSP Total score, total: pooled; for Patients with 7-Point Improvement in PSP Total Score at Week 12, percent / Number of Patients with 7-Point improvement in PSP Total Score at Week 12: responder analysis; for Number of Patients with 7-Point improvement in PSP Total Score at Week 12: n/N
From the text: The primary integrated analysis of the efficacy of Roluperidone compared with placebo for the treatment of negative symptoms of schizophrenia is based on the change from Baseline in the PANSS Marder's negative symptoms factor score (in this document referred to as NSFS) to Week 12. Efficacy is also supported by the analysis of change from Baseline in the PSP Total score and the CGI-S to Week 12.
The PSP is a validated clinician-rated scale intended to reflect real-life situations that measures personal and social functioning in 4 domains: (a) socially useful activities, (b) personal and social relationships, (c) self-care, and (d) disturbing and aggressive behaviors. The score is based on the assessment of a patient's performance in the 4 domains. The PSP Total score is a single measurement of functioning ranging from 1 to 100, where a higher score represents better functioning. A score of 91 to 100 indicates excellent functioning in all 4 main areas; the patient is held in high consideration for their good qualities, copes adequately with life problems, and is involved in a wide range of interests and activities. A score of 1 to 10 indicates a lack of autonomy in basic functioning with extreme behaviors but without survival risk (score 6 to 10) or with survival risk (score 1 to 5). […] Review of the relevant scientific literature and the analysis of the psychometric properties of the 4 domains that result in the generation of the PSP Total score were supportive of the appropriateness and cross-cultural applicability of the use of the PSP in drug development for the indication of negative symptoms of schizophrenia The PSP was assessed at the timepoints described in Table 6. The changes from Baseline in the PSP Total score and individual domain scores after 12 weeks of treatment were exploratory efficacy endpoints in Study MIN-101C03, and the Total score was the key secondary efficacy endpoint and the PSP domain scores were exploratory endpoints in Study MIN-101C07.
(§1) The Efficacy data from Study Nos. 1 and 2 were pooled. The majority of patients in the pooled ITT population completed the DB period (502 patients overall, 66.3%), with similar rates in each treatment group (placebo: 69.8%, 32 mg Roluperidone: 65.3%, and 64 mg Roluperidone: 63.8%) (Table 12). The majority (62.7%) of those who completed the DB period entered the OL period. The most common reason for discontinuation during the DB period among patients overall was withdrawal of consent (15.6%), followed by adverse events (7.3%) and lack of efficacy (5.4%) (Table 12). […] Approximately twice as many patients in the Roluperidone groups (32 mg: 8.5%; 64 mg: 9.1%) discontinued due to adverse events compared with patients in the placebo group (4.3%). More patients in the placebo group discontinued due to lack of efficacy (6.7%) than in the Roluperidone groups (32 mg: 4.4%; 64 mg: 5.1%). The low number of patients who discontinued due to lack of efficacy or withdrawal of consent probably reflects a low level of worsening of positive symptoms.
The integrated analysis supporting the efficacy of Roluperidone as a treatment for the negative symptoms of schizophrenia in adults is presented below.

[2] = tested on: patients with negative symptoms of schizophrenia; experiment: Integrated analysis (pooled ITT): patient disposition, reasons for withdrawal; format: in vivo, human; settings: for Withdrawn from double-blind period: Adverse event, % / Withdrawn from double-blind period: Death, % / Withdrawn from double-blind period: Lack of efficacy, %: DB
Description: as §1
A similar proportion of patients in each OL treatment group entered the OL period from the DB period (range: 61.3% to 65.6%) (Table 13). The most common reason for discontinuation in the OL period among patients was withdrawal of consent (93 patients, 12.3%), followed by adverse event (45 patients, 5.9%) and lack of efficacy (16 patients, 2.1%).

[3] = Placebo in DB to 32 mg in OL (N = 128)
[4] = Placebo in DB to 64 mg in OL (N = 127)
[5] = Placebo in DB to Roluperidone in OL, Total (N = 255)
[6] = Roluperidone at Any Time 32 mg (N = 376)
[7] = Roluperidone at Any Time 64 mg (N = 381)

## 1H-Isoindol-1-one,2-[ [1-[2-(4-fluorophenyl)-2-oxoethyl]-4-piperidinyl]methyl]-2,3-dihydro-, hydrochloride, hydrate (1:1:2) [Roluperidone]
[1]; 32 mg, Week 4
  PSP Total Score change from Baseline, LS mean (SE): 1.6 (0.52)
  PSP Total Score change from Baseline, Mean (SD): 1.5 (7.87)
  PSP Total Score change from Baseline, Median: 0.0
  PSP Total Score, Difference (95% CI) in LS mean (vs placebo): 0.7
[1]; 32 mg, Week 8
  PSP Total Score change from Baseline, LS mean (SE): 2.9 (0.62)
  PSP Total Score change from Baseline, Mean (SD): 3.6 (7.04)
  PSP Total Score change from Baseline, Median: 2.0
  PSP Total Score, Difference (95% CI) in LS mean (vs placebo): 0.6
[1]; 32 mg, Week 12
  PSP Total Score change from Baseline, LS mean (SE): 3.3 (0.71)
  PSP Total Score change from Baseline, Mean (SD): 3.5 (10.03)
  PSP Total Score change from Baseline, Median: 2.0
  PSP Total Score, Difference (95% CI) in LS mean (vs placebo): 0.5
  PSP Domain Disturbing and Aggressive Behavior, Change from Baseline (LS Means [SEM]): −0.1 (0.04)
  PSP Domain Personal and Social Relationships, Change from Baseline (LS Means [SEM]): −0.3 (0.05)
  PSP Domain Self-Care, Change from Baseline (LS Means [SEM]): −0.3 (0.05)
  PSP Domain Socially Useful Activities, Change from Baseline (LS Means [SEM]): −0.3 (0.05)
  PSP Total Score, Change from Baseline (LS Means [SEM]): 3.3 (0.71)
  PSP Total score, LS mean change from Baseline compared with placebo: 0.5
[1]; 32 mg
  Patients with high improvement in PSP Total score (magnitude of change ≥10): 26%
  Patients with moderate improvement in PSP Total score (magnitude of change 7-9): 7%
  Patients with moderate or high improvement in PSP Total score, total: 33%
  Patients with 7-Point Improvement in PSP Total Score at Week 12, percent: 33%
  Number of Patients with 7-Point improvement in PSP Total Score at Week 12: 54/166
[1]; 64 mg, Week 4
  PSP Total Score change from Baseline, LS mean (SE): 3.1 (0.52)
  PSP Total Score change from Baseline, Mean (SD): 3.1 (8.33)
  PSP Total Score change from Baseline, Median: 1.0
  PSP Total Score, Difference (95% CI) in LS mean (vs placebo): 2.1
[1]; 64 mg, Week 8
  PSP Total Score change from Baseline, LS mean (SE): 4.9 (0.61)
  PSP Total Score change from Baseline, Mean (SD): 4.8 (6.61)
  PSP Total Score change from Baseline, Median: 3.0
  PSP Total Score, Difference (95% CI) in LS mean (vs placebo): 2.6
[1]; 64 mg, Week 12
  PSP Total Score change from Baseline, LS mean (SE): 6.4 (0.69)
  PSP Total Score change from Baseline, Mean (SD): 6.4 (10.32)
  PSP Total Score change from Baseline, Median: 4.5
  PSP Total Score, Difference (95% CI) in LS mean (vs placebo): 3.6
  PSP Domain Disturbing and Aggressive Behavior, Change from Baseline (LS Means [SEM]): −0.0 (0.04)
  PSP Domain Personal and Social Relationships, Change from Baseline (LS Means [SEM]): −0.4 (0.05)
  PSP Domain Self-Care, Change from Baseline (LS Means [SEM]): −0.3 (0.05)
  PSP Domain Socially Useful Activities, Change from Baseline (LS Means [SEM]): −0.4 (0.05)
  PSP Total Score, Change from Baseline (LS Means [SEM]): 6.4 (0.69)
  PSP Total score, LS mean change from Baseline compared with placebo: 3.6
[1]; 64 mg
  Patients with high improvement in PSP Total score (magnitude of change ≥10): 36%
  Patients with moderate improvement in PSP Total score (magnitude of change 7-9): 7%
  Patients with moderate or high improvement in PSP Total score, total: 43%
  Patients with 7-Point Improvement in PSP Total Score at Week 12, percent: 43%
  Number of Patients with 7-Point improvement in PSP Total Score at Week 12: 76/176
[1]; Roluperidone Total, Week 4
  PSP Total Score change from Baseline, Mean (SD): 2.3 (8.14)
  PSP Total Score change from Baseline, Median: 0.0
[1]; Roluperidone Total, Week 8
  PSP Total Score change from Baseline, Mean (SD): 4.2 (6.84)
  PSP Total Score change from Baseline, Median: 3.0
[1]; Roluperidone Total, Week 12
  PSP Total Score change from Baseline, Mean (SD): 5.0 (10.27)
  PSP Total Score change from Baseline, Median: 3.0
[2]; 32 mg (N = 248)
  Withdrawn from double-blind period: Adverse event, %: 8.5%
  Withdrawn from double-blind period: Death, %: 0.4%
  Withdrawn from double-blind period: Lack of efficacy, %: 4.4%
[2]; 64 mg (N = 254)
  Withdrawn from double-blind period: Adverse event, %: 9.1%
  Withdrawn from double-blind period: Lack of efficacy, %: 5.1%
[2]; [3]
  Withdrawn from OL period: Adverse event, %: (6.3) %
  Withdrawn from OL period: Lack of efficacy, %: (3.1) %
[2]; [4]
  Withdrawn from OL period: Adverse event, %: (3.9) %
  Withdrawn from OL period: Lack of efficacy, %: (1.6) %
[2]; [5]
  Withdrawn from OL period: Adverse event, %: (5.1) %
  Withdrawn from OL period: Lack of efficacy, %: (2.4) %
[2]; Roluperidone Total (N = 502)
  Withdrawn from double-blind period: Adverse event, %: 8.8%
  Withdrawn from double-blind period: Death, %: 0.2%
  Withdrawn from double-blind period: Lack of efficacy, %: 4.8%
[2]; [6]
  Withdrawn from OL period: Adverse event, %: (5.6) %
  Withdrawn from OL period: Lack of efficacy, %: (2.1) %
[2]; [7]
  Withdrawn from OL period: Adverse event, %: (6.3) %
  Withdrawn from OL period: Lack of efficacy, %: (2.1) %
